Laboratory results as given in patent US20250346585A1 (Alexion Pharmaceuticals, Inc., priority 2022, published 2025).
Like-named read-outs stand apart in the source and are kept apart here.

Target: Human complement C1s enzyme (Homo sapiens (Human), UniProt P09871)
Test: Human C1s enzyme assay
Format: biochemical
Conditions: read-out: IC50 (Stars)
Protocol: Human complement C1s enzyme (purified from human serum, Complement Technology, Inc.) at 1.16 nM final concentration was incubated with test compound at various concentrations for 5 min at room temperature in 50 mM Tris, 1 M NaCl, pH 7.5. A synthetic substrate Z-L-Lys-SBzl and DTNB (Ellman's reagent) were added to final concentrations of 100 μM each. Absorbance at 405 nm (A405) was recorded at 30 second intervals for 30 min using a microplate spectrophotometer. IC50 values were calculated by nonlinear regression of complement C1s reaction rates as a function of test compound concentration.

[1] = Human complement C1s enzyme 1.16 nM, substrate Z-L-Lys-SBzl, assay of Example 3
[2] = Human C1s enzyme assay of Example 3
[3] = Human complement C1s enzyme 1.16 nM, substrate Z-L-Lys-SBzl 100 μM, assay of Example 3

Chain of Human complement C1s enzyme (P09871 438-688 limits assumed): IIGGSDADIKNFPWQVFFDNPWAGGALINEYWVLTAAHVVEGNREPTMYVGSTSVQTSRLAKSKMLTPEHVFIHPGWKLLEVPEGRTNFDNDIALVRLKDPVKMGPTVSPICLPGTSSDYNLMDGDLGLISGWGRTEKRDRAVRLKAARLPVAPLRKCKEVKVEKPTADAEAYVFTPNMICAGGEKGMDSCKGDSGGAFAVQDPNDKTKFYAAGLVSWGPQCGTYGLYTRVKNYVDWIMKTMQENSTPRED
Chain of Human complement C1s enzyme (P09871 16-437 partner limits assumed): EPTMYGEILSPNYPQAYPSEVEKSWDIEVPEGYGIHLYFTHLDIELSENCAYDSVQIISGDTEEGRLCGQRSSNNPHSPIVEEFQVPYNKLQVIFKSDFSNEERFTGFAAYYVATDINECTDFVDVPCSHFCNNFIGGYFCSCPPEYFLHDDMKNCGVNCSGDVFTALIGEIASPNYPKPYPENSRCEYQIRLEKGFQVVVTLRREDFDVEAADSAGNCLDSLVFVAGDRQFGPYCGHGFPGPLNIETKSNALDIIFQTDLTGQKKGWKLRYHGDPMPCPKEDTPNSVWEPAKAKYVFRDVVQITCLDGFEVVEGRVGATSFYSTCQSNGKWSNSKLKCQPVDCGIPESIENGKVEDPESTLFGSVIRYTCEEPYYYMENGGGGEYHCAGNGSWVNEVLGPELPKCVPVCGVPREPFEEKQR

Row | SMILES | IC50 [3] | other results
1 | COC[C@@]1(F)C[C@@H](C(=O)N[C@H](C)c2cc(C(=N)N)cs2)N(C(=O)CNC(=O)c2ccc3c(c2)-c2ccccc2C3C)C1 (stereo partly drawn) [Compound 418, (2S,4R)—N—((R)-1-(4-carbamimidoylthiophen-2-yl)ethyl)-4-fluoro-4-(methoxymethyl)-1-((9-methyl-9H-fluorene-3-carbonyl)glycyl)pyrrolidine-2-carboxamide] |  | IC50 [1]: < 100 nM
2 | CO[C@@H]1C[C@@H](C(=O)N[C@H](C)c2cc(C(=N)N)cs2)N(C(=O)CNC(=O)c2ccc3c(c2)-c2ccccc2C3(F)F)C1 [Compound 71, (2S,4R)—N—((R)-1-(4-carbamimidoylthiophen-2-yl)ethyl)-1-((9,9-difluoro-9H-fluorene-3-carbonyl)glycyl)-4-methoxypyrrolidine-2-carboxamide] |  | IC50 [2]: < 100 nM
3 | C[C@@H](NC(=O)[C@@H]1CC2(CN1C(=O)CNC(=O)c1ccc3[nH]c4ccccc4c3c1)OCCO2)c1cc(C(=N)N)cs1 [Compound 170, (S)-7-((9H-carbazole-3-carbonyl)glycyl)-N—((R)-1-(4-carbamimidoylthiophen-2-yl)ethyl)-1,4-dioxa-7-azaspiro[4.4]nonane-8-carboxamide] |  | IC50 [2]: < 100 nM
4 | O=C(NCC(=O)N1CC2(C[C@H]1C(=O)NCc1ccn[nH]1)OCCO2)c1ccc(Oc2ccccc2)cc1 [Compound 384, (S)-N-((1H-pyrazol-5-yl)methyl)-7-((4-phenoxybenzoyl)glycyl)-1,4-dioxa-7-azaspiro[4.4]nonane-8-carboxamide] | > 1000 nM | 
5 | CS(=O)(=O)[C@@H]1C[C@@H](C(=O)N[C@H](CO)c2cc(C(=N)N)cs2)N(C(=O)CNC(=O)c2ccc3c(c2)-c2ccccc2C3(F)F)C1 [Compound 400, (2S,4R)—N—((R)-1-(4-carbamimidoylthiophen-2-yl)-2-hydroxyethyl)-1-((9,9-difluoro-9H-fluorene-3-carbonyl)glycyl)-4-(methylsulfonyl)pyrrolidine-2-carboxamide] |  | IC50 [1]: < 100 nM
6 | COC[C@@]1(F)C[C@@H](C(=O)N[C@H](C)c2cc(C(=N)N)cs2)N(C(=O)CNC(=O)c2ccc3[nH]c4ccccc4c3c2)C1 [Compound 389, N-(2-((2S,4R)-2-(((R)-1-(4-carbamimidoylthiophen-2-yl)ethyl)carbamoyl)-4-fluoro-4-(methoxymethyl)pyrrolidin-1-yl)-2-oxoethyl)-9H-carbazole-3-carboxamide] | < 100 nM | 
7 | CC1c2ccccc2-c2ccc(C(=O)NCC(=O)N3C[C@@](F)(CF)C[C@H]3C(=O)N[C@H](C)c3cc(C(=N)N)cs3)cc21 (stereo partly drawn) [Compound 371, (2S,4R)—N—((R)-1-(4-carbamimidoylthiophen-2-yl)ethyl)-4-fluoro-4-(fluoromethyl)-1-((9-methyl-9H-fluorene-2-carbonyl)glycyl)pyrrolidine-2-carboxamide] | < 100 nM | 
8 | CO[C@@H]1C[C@@H](C(=O)N[C@H](C)c2cc(C(=N)N)cs2)N(C(=O)CNC(=O)c2ccc3cc4ccccc4cc3c2)C1 [Compound 278, (2S,4R)-1-((anthracene-2-carbonyl)glycyl)-N—((R)-1-(4-carbamimidoylthiophen-2-yl)ethyl)-4-methoxypyrrolidine-2-carboxamide] | < 100 nM | 
9 | C[C@@H](NC(=O)[C@@H]1CC2(CN1C(=O)CNC(=O)c1ccc3c(c1)-c1ccccc1S3(=O)=O)OCCO2)c1cc(C(=N)N)cs1 [Compound 261, (S)—N—((R)-1-(4-carbamimidoylthiophen-2-yl)ethyl)-7-((5,5-dioxidodibenzo[b,d]thiophene-2-carbonyl)glycyl)-1,4-dioxa-7-azaspiro[4.4]nonane-8-carboxamide] | < 100 nM | 
10 | C[C@@H](NC(=O)[C@@H]1C[C@]2(COCCCCN)C[C@@H]2N1C(=O)CNC(=O)c1ccc2c(c1)-c1ccccc1C2(F)F)c1cc(C(=N)N)cs1 [Compound 414, (1S,3S,5R)-5-((4-aminobutoxy)methyl)-N—((R)-1-(4-carbamimidoylthiophen-2-yl)ethyl)-2-((9,9-difluoro-9H-fluorene-3-carbonyl)glycyl)-2-azabicyclo[3.1.0]hexane-3-carboxamide] |  | IC50 [1]: < 100 nM
11 | C[C@@H](NC(=O)[C@@H]1C[C@](F)(CF)CN1C(=O)CNC(=O)c1ccc2sc3ccccc3c2c1)c1cc(C(=N)N)cs1 [Compound 354, (2S,4R)—N—((R)-1-(4-carbamimidoylthiophen-2-yl)ethyl)-1-((dibenzo[b,d]thiophene-2-carbonyl)glycyl)-4-fluoro-4-(fluoromethyl)pyrrolidine-2-carboxamide] | < 100 nM | 
12 | C[C@@H](NC(=O)[C@@H]1C[C@@H](OC(F)F)CN1C(=O)CNC(=O)c1ccc(Oc2ccc(F)cc2)cc1)c1cc(C(=N)N)cs1 [Compound 8, (2S,4R)—N—((R)-1-(4-carbamimidoylthiophen-2-yl)ethyl)-4-(difluoromethoxy)-1-((4-(4-fluorophenoxy)benzoyl)glycyl)pyrrolidine-2-carboxamide] |  | IC50 [2]: < 100 nM
13 | N=C(N)c1csc(CNC(=O)[C@@H]2CC3(CN2C(=O)CN2Cc4cc(-c5ccc(F)cc5)ccc4C2=O)OCCO3)c1 [Compound 230] | < 100 nM | 
14 | C[C@@H](NC(=O)[C@@H]1C[C@@H](OC(F)F)CN1C(=O)CN1Cc2cc(-c3ccccc3)ccc2C1=O)c1cc(C(=N)N)cs1 [Compound 385, (2S,4R)—N—((R)-1-(4-carbamimidoylthiophen-2-yl)ethyl)-4-(difluoromethoxy)-1-(2-(1-oxo-5-phenylisoindolin-2-yl)acetyl)pyrrolidine-2-carboxamide] | < 100 nM | 
15 | Cc1cc(C(=O)NCC(=O)N2[C@H]3C[C@@]3(C)C[C@H]2C(=O)N[C@H](C)c2cc(C(=N)N)cs2)ccc1Oc1ccccc1 [Compound 28, (1S,3S,5S)—N—((R)-1-(4-carbamimidoylthiophen-2-yl)ethyl)-5-methyl-2-((3-methyl-4-phenoxybenzoyl)glycyl)-2-azabicyclo[3.1.0]hexane-3-carboxamide] |  | IC50 [2]: < 100 nM
16 | C[C@@H](NC(=O)[C@@H]1C[C@H](C(F)(F)F)CN1C(=O)CNC(=O)c1ccc2c(c1)-c1ccccc1C2(F)F)c1cc(C(=N)N)cs1 [Compound 322, (2S,4S)—N—((R)-1-(4-carbamimidoylthiophen-2-yl)ethyl)-1-((9,9-difluoro-9H-fluorene-3-carbonyl)glycyl)-4-(trifluoromethyl)pyrrolidine-2-carboxamide] | < 100 nM | 
17 | CO[C@@H]1C[C@@H](C(=O)NCc2cc(-c3c[nH]c([N+](=O)[O-])n3)cs2)N(C(=O)CNC(=O)c2ccc(Oc3ccc(F)cc3)cc2)C1 [Compound 156, (2S,4R)-1-((4-(4-fluorophenoxy)benzoyl)glycyl)-4-methoxy-N-((4-(2-nitro-1H-imidazol-4-yl)thiophen-2-yl)methyl)pyrrolidine-2-carboxamide] |  | IC50 [2]: > 1000 nM
18 | COC(=O)/N=C(/N)c1csc([C@@H](C)NC(=O)[C@@H]2C[C@@H](OC(F)F)CN2C(=O)CNC(=O)c2ccc3c(c2)-c2ccccc2C3(F)F)c1 [Compound 247, methyl ((E)-amino(5-((R)-1-((2S,4R)-1-((9,9-difluoro-9H-fluorene-3-carbonyl)glycyl)-4-(difluoromethoxy)pyrrolidine-2-carboxamido)ethyl)thiophen-3-yl)methylene)carbamate] | < 100 nM | 
19 | COC[C@@]1(F)C[C@@H](C(=O)N[C@H](CO)c2cc(C(=N)N)cs2)N(C(=O)CNC(=O)c2ccc3c(c2)-c2ccccc2C3(F)F)C1 [Compound 408, (2S,4R)—N—((R)-1-(4-carbamimidoylthiophen-2-yl)-2-hydroxyethyl)-1-((9,9-difluoro-9H-fluorene-3-carbonyl)glycyl)-4-fluoro-4-(methoxymethyl)pyrrolidine-2-carboxamide] |  | IC50 [1]: < 100 nM
